Results published in US11802305B2, “Detection processes using sites of chromosome interaction” (Oxford Biodynamics PLC, priority 2015, dated 2023).

Key:
MYD88 locus = conditions: 72 hr treatment with TCP (1 uM), AML cell lines THP-1 and MV4-11, relative to untreated cells
Procedure: Two AML (acute myeloid leukemia) cell lines THP-1 and MV4-11 were tested with the above compound. […] The positions across the gene have been created and selected based on restriction sites and other features of detection and primer efficiency and were then analysed for interactions. […] Below are the PCR EpiSwitch™ marker results for the MyD88 locus for cell lines THP-1 and MV4-11. FACS analysis was used to sort for the expression of CD11b± cells, as an indicator of differentiation.
However, epigenetic changes observed for chromosome signatures are clean to follow a binary format of 0 or 1.

[1] = cited from earlier work

Row | Structure (SMILES) | fold change at MYD88 locus (GEX and EpiSwitch) (MYD88 locus) [fold] | effect on lifespan of ALS patients [1]
1 | N[C@@H]1C[C@H]1c1ccccc1 (racemic) [TCP, tranylcypromine] | 1.5 | –
2 | Nc1nc2ccc(OC(F)(F)F)cc2s1 [riluzole] | – | modest increase in lifespan
